The results in this text go back to patent US10329300B2, “Pyrazolo[3,4-d]pyrimidine compound or salt thereof” (TAIHO PHARMACEUTICAL CO., LTD., priority 2015, dated 2019).

Read-outs that look alike come from different tables or passages of the source.

Common to all, as to format: cell-based
Assay [1] deals with HER2-overexpressing human stomach cancer cell line NCI-N87 cells. As to the kind of experiment: Cytostatic activity against HER2-expressing cell line NCI-N87 (CellTiter-Glo). An excerpt:
HER2-overexpressing human stomach cancer cell line NCI-N87 cells were suspended in RPMI1640 medium (manufactured by Life Technologies Corp.) containing 10% fetal bovine serum. Meanwhile, EGFR-overexpressing highly activated human epithelioid cancer cell line A431 cells were suspended in DMEM, high glucose medium (manufactured by Life Technologies Corp.) containing 10% fetal bovine serum. Subsequently, each cell suspension was inoculated to each well of a 384-well flat-bottom microplate and cultured at 37° C. for 1 day in an incubator containing 5% carbon dioxide. […] The solution of the test compound in DMSO was diluted with the medium used in the suspension of each cell line, and this solution was added at a final concentration of DMSO of 0.2% to each well of the cell culture plate, followed by further culture at 37° C. for 3 days in an incubator containing 5% carbon dioxide.

The test system of assay [2] is HER2-overexpressing human breast cancer cell line SK-BR-3 cells. As to the kind of experiment: Cytostatic activity against HER2-expressing cell line SK-BR-3 (CellTiter-Glo). The note with it: 3-day culture, read-out: SK-BR-3 cell growth inhibitory activity IC50 value. On the procedure:
HER2-overexpressing human breast cancer cell line SK-BR-3 cells were suspended in McCoy's 5a medium (manufactured by Life Technologies Corp.) containing 10% fetal bovine serum. The cell suspension was inoculated to each well of a 384-well flat-bottom microplate and cultured at 37° C. for 1 day in an incubator containing 5% carbon dioxide. The compound of the present invention was dissolved in DMSO, and the test compound was diluted into 500 times as high concentration as the final concentration using DMSO. The solution of the test compound in DMSO was diluted with the medium used in the suspension of each cell line, and this solution was added at a final concentration of DMSO of 0.2% to each well of the cell culture plate, followed by further culture at 37° C. for 3 days in an incubator containing 5% carbon dioxide.
On the technique in general: In ATP-based viability assays light output follows the ATP content of the culture.

For assay [3], the system named is EGFR-overexpressing highly activated human epithelioid cancer cell line A431 cells. In words: Cytostatic activity against EGFR-expressing cell line A431 (CellTiter-Glo). The note with it: 3-day culture, read-out: A431 cell growth inhibitory activity IC50 value. An excerpt:
Test Example 2 Measurement Test (In Vitro) of Cytostatic Activity Against HER2-Expressing Cell Line (NCI-N87) and EGFR-Expressing Cell Line (A431) and Comparison of Selectivity Thereof
HER2-overexpressing human stomach cancer cell line NCI-N87 cells were suspended in RPMI1640 medium (manufactured by Life Technologies Corp.) containing 10% fetal bovine serum. Meanwhile, EGFR-overexpressing highly activated human epithelioid cancer cell line A431 cells were suspended in DMEM, high glucose medium (manufactured by Life Technologies Corp.) containing 10% fetal bovine serum. Subsequently, each cell suspension was inoculated to each well of a 384-well flat-bottom microplate and cultured at 37° C. for 1 day in an incubator containing 5% carbon dioxide. The compound of the present invention or Comparative Example compound 1 was dissolved in DMSO, and the test compound was diluted into a concentration of 500 times the final concentration using DMSO. The solution of the test compound in DMSO was diluted with the medium used in the suspension of each cell line, and this solution was added at a final concentration of DMSO of 0.2% to each well of the cell culture plate, followed by further culture at 37° C. for 3 days in an incubator containing 5% carbon dioxide.
Rate of growth inhibition (%)=(C−T)/(C)×100 T: Luminescence intensity of a well supplemented with the test compound C: Luminescence intensity of a well not supplemented with the test compound

Setting [4] is: Homo sapiens, 72 h, 3-day culture, NCI-N87, read-out: NCI-N87 cell growth inhibitory activity IC50 value.

Turning to `C=CC(=O)N1CCC[C@@H](n2nc(C(=O)Nc3nc4cc(F)ccc4o3)c3c(N)ncnc32)C1` [Comparative Example compound 1, (R)-1-(1-acryloylpiperidin-3-yl)-4-amino-N-(5-fluorobenzo[d]oxazol-2-yl)-1H-pyrazolo[3,4-d]pyrimidine-3-carboxamide, reference compound], the “cytostatic effect in evaluation using HER2-overexpressing cell lines” value in assay [1] (HER2-overexpressing cell lines, qualitative) is “very low cytostatic effect”. Also, the IC50 (usually the point on the concentration scale where inhibition reaches its midpoint) worked out at 2380 nM in assay [1] (setting [4]) and 1130 nM in assay [2] (Homo sapiens, 72 h).

With `C=CC(=O)N1CCC[C@@H](n2nc(C(=O)Nc3ccc(CC(=O)N(C)C)c(Cl)c3)c3c(N)ncnc32)C1` [Example 8, (R)-1-(1-acryloylpiperidin-3-yl)-4-amino-N-(3-chloro-4-(2-(dimethylamino)-2-oxoethyl)phenyl)-1H-pyrazolo[3,4-d]pyrimidine-3-carboxamide], in assay [3] (Homo sapiens, A-431, 72 h), the IC50 amounted to 956 nM.

Turning to `C=CC(=O)N1CCC[C@@H](n2nc(C(=O)Nc3ccc(OC(=O)N(C)C)cc3OC)c3c(N)ncnc32)C1` [Example 36, (R)-4-(1-(1-acryloylpiperidin-3-yl)-4-amino-1H-pyrazolo[3,4-d]pyrimidine-3-carboxamido)-3-methoxyphenyl dimethylcarbamate], the IC50 stood at 8 nM in assay [1] (Homo sapiens, NCI-N87, 72 h, read-out: NCI-N87 cell growth inhibitory activity IC50 value (nM)) and 2610 nM in assay [3] (Homo sapiens, A-431, 72 h).

As for `C=CC(=O)N1CCC[C@@H](n2nc(C(=O)Nc3cc(C)c(CC(=O)N(C)C)cc3C)c3c(N)ncnc32)C1` [Example 39, (R)-1-(1-acryloylpiperidin-3-yl)-4-amino-N-(4-(2-(dimethylamino)-2-oxoethyl)-2,5-dimethylphenyl)-1H-pyrazolo[3,4-d]pyrimidine-3-carboxamide], the IC50 was found to be 12 nM in assay [1] (setting [4]); 1800 nM in assay [3] (Homo sapiens, A-431, 72 h); 24 nM in assay [2] (Homo sapiens, 72 h).

`C=CC(=O)N1CCC[C@@H](n2nc(C(=O)Nc3ccc(CC(=O)N(C)C)c4c3OCO4)c3c(N)ncnc32)C1` [Example 53, (R)-1-(1-acryloylpiperidin-3-yl)-4-amino-N-(7-(2-(dimethylamino)-2-oxoethyl)benzo[d][1,3]dioxol-4-yl)-1H-pyrazolo[3,4-d]pyrimidine-3-carboxamide]: the IC50 is 11 nM in assay [1] (setting [4]) and 1670 nM in assay [3] (Homo sapiens, A-431, 72 h).

On to `C=CC(=O)N1CC[C@@H](n2nc(C(=O)Nc3ccc(CC(=O)N(C)C)c(F)c3C)c3c(N)ncnc32)C1` [Example 56, (R)-1-(1-acryloylpyrrolidin-3-yl)-4-amino-N-(4-(2-(dimethylamino)-2-oxoethyl)-3-fluoro-2-methylphenyl)-1H-pyrazolo[3,4-d]pyrimidine-3-carboxamide], for which the IC50 in assay [3] (Homo sapiens, A-431, 72 h) was 2510 nM.

Take “(R)-1-(1-acryloylpiperidin-3-yl)-4-amino-N-(4-(2-methoxy(methyl)amino-2-oxoethyl)-2-methylphenyl)-1H-pyrazolo[3,4-d]pyrimidine-3-carboxamide [Example 72]”: the IC50 amounted to 5 nM in assay [1] (3-day culture, NCI-N87, read-out: NCI-N87 cell growth inhibitory activity IC50 value); 1170 nM in assay [3]; 16 nM in assay [2].

On to “(R,E)-4-(4-amino-1-(1-(4-dimethylamino)but-2-enoyl)piperidin-3-yl)-1H-pyrazolo[3,4-d]pyrimidine-3-carboxamido)naphthalen-1-yl dimethyl carbamate [Example 66]”, for which, in assay [3], the IC50 stood at 6040 nM.
